Laboratory results published in patent US8017350B2, “Glimepiride- and insulin-induced glycosylphosphatidylinositol-specific phospholipase C regulation” (Sanofi-Aventis Deutschland GmbH, priority 2004, dated 2011).

What was measured:
[1] = target: T1, GPI-PLC (T. brucei) (Trypanosoma brucei brucei, UniProt P09194); experiment: GPI-PLC (T. brucei) assay, human placental aP substrate, TX-114 partitioning; assay type: biochemical
T1 construct: purchased Oxford Glycosystems (Oxford, UK)
Protocol: GPI-PLD (rat serum) was assayed according to “Hari et al. (1997) Biochim. Biophys. Acta 1355: 293-302” by incubation with 10 μl of human placental aP solution (100 U/ml in 10 mM Hepes/NaOH, pH 7.0, 150 mM NaCl) in 100 μl of 200 mM Tris/maleate (pH 7.0) and 1% Nonidet P-40 for 10 min at 37° C. and subsequent termination of the reaction by addition of 0.4 ml of ice-cold stop buffer (10 mM Hepes/NaOH, pH 7.0, 150 mM NaCl, 0.1 mM MgCl2 and 0.01 mM zinc acetate). GPI-PLC (T. brucei) was assayed as described in “Mensa-Wilmot et al. (1995) Methods Enzymol. 250: 641-655” by incubation with 5 μl of human placental aP solution (see above) in 50 μl of 50 mM Tris/HCl (pH 8.0), 0.25% Nonidet P-40 and 5 mM EDTA for 30 min at 37° C. and subsequent termination of the reaction by addition of 0.45 ml of stop buffer. PI-PLC (B. cereus) and adipocyte GPI-PLC (5-25 μg plasma membranes or hc/lcDIGs) were assayed by incubation with 10 μl of bovine erythrocyte acetylcholinesterase (AChE) solution (12 U/ml in 10 mM Tris/HCl, pH 7.4, 144 mM NaCl, 0.1% TX-100) in 100 μl of 20 mM Hepes/KOH (pH 7.8), 144 mM NaCl, 0.1% TX-100, 0.2 mM MgCl2 for 1 h at 25° C. and subsequent termination by adding 5 μl of glacial acetic acid and then 0.4 ml of 10 mM Tris/HCl (pH 7.4), 144 mM NaCl. Each reaction mixture was subjected to TX-114 partitioning (see below).
Pelleted hc/lcDIGs (10-50 μg protein) or (G)PI-PLC reaction mixtures (0.5 ml) were separated into amphiphilic and hydrophilic proteins using partitioning between TX-114-enriched and depleted phases according to “Bordier, C., (1981) J. Biol, Chem. […]” by suspending in 1 ml of ice-cold TX-114 (1%), 25 mM Tris/HCl (pH 7.4), 144 mM NaCl or mixing with 0.5 ml of ice-cold TX-114 (2%), respectively. After incubation for 1 h on ice, the mixture was layered onto a cushion of 0.4 ml of 0.25 M sucrose and 25 mM Tris/HCl (pH 7.4) on ice. Phase separation was induced by warming up to 37° C. and subsequent centrifugation (10,000×g, 1 min). After re-extraction of the lower TX-114-enriched phase, aliquots of the pooled upper TX-114-depleted phase were measured for 5′-Nuc, aP and AChE activity or precipitated (15 polyethylene glycol 4000) for SDS-PAGE analysis.
Table 1: GPI-PLC of hcDIGs from rat adipocytes, GPI-PLC from T. brucei and PI-PLC from B. cereus were incubated with solubilized and partially purified bovine erythrocyte AChE or human placental aP in the absence or presence of increasing concentrations (0.05 μM-1 mM) of the inhibitors indicated under appropriate conditions (see Materials and Methods). Cleavage rate was calculated from the amount of hydrophilic AChE and aP activity recovered with the TX-114-depleted phase upon TX-114 partitioning. Means+SD from at least 3 independent incubations with partitioning/enzyme assays in quadruplicate are given. n.a., not applicable.
Purified (G)PI-PLC/D from B. cereus, rat serum and T. brucei as well as total plasma membranes (PM) and hc/lcDIGs prepared from isolated rat adipocytes were incubated (10 min, 30° C.) with increasing concentrations of GPI-2350 and then assayed for amphiphilic-to-hydrophilic conversion of AChE and aP by TX-114 partitioning (see Materials and Methods). The lipolytic activity was calculated as % of the control reaction in the absence of GPI-2350 (set at 100%). Means+SD of at least 4 independent incubations with AChE and aP activity measurements in triplicate each are given.

[2] = target: PI-PLC, Bacillus cereus (recombinant) (Bacillus cereus, UniProt P14262); experiment: Inhibition of PI-PLC (B. cereus), cleavage of GPI-protein, TX-114 partitioning; assay type: biochemical
Chain of PI-PLC, Bacillus cereus (recombinant) (P14262 32-329 limits assumed): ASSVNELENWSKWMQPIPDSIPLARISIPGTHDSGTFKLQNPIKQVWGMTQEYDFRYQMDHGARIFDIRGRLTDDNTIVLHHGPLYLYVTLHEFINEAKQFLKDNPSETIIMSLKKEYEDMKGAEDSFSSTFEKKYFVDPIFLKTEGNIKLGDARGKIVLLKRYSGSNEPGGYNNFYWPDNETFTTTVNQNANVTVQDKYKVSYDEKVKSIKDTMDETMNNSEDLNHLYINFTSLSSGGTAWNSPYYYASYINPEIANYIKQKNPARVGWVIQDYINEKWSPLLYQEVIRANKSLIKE
Description: Human recombinant insulin, PIG41 (disclosed in “Frick, W. et al., (1998) Biochemistry 37, 13421-13436”) and glimepiride (trade name Amaryl) were supplied by the medicinal chemistry and synthesis departments of Aventis Pharma Germany (Frankfurt, Germany). 12-((7-nitrobenz-2-oxa-1,3-diazol-4-yl)amino)dodecanoic acid (NBD-FA) was synthesized as described in Müller et al., (1997) Biochem. Biophys. Acta 1347: 23-39. Collagenase (Worthington, CLS, type I, 250 units/mg) was provided by Biochrom (Berlin, Germany). Lipoprotein lipase (LPL, affinity-purified) from bovine milk, phospholipase A2 (honey bee venom), crude porcine pancreatic lipase (PL), recombinant PC- and PI-PLC (Bacillus cereus), crude PLD (cabbage) and defatted BSA (fraction V) were delivered by SigmalAldrich (Deisenhofen, Germany), crude PI-PLC (rat liver) and proteinase inhibitors were purchased from Roche Molecular Biochemicals (Mannheim, Germany). Recombinant GPI-PLC (Trypanosoma brucei) was obtained from Oxford Glycosystems (Oxford, UK). Inhibitors of PLA2 (AACOCF3) and PLC (U 73122) were from Tocris (Avonmouth, UK). Bisbodipy-C11-PC was bought from Molecular Probes (Eugene, Oreg.). Lipids were purchased from Avanti Polar Lipids (Birmingham, Ala.). […]

T1 sequence (P09194 whole entry): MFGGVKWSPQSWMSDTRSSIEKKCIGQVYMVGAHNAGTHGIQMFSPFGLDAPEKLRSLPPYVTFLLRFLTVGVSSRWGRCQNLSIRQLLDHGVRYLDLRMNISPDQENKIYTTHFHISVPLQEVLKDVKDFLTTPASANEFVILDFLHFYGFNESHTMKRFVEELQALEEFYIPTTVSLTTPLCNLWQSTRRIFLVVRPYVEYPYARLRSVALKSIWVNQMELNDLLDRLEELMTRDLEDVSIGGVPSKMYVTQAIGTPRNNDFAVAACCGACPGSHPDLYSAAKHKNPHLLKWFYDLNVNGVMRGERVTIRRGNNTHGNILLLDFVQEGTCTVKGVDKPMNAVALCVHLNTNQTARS

## CCCCCCCCCCCCP1(=O)O[C@@H]2[C@H](O)[C@@H](O)[C@H](O)[C@@H](O)[C@@H]2O1 (some centres unmarked) [GPI-2350, myo-inositol-1,2-cyclo-dodecylphosphonic acid]
[1]; IC50, Table 1, inhibitor 0.05 μM-1 mM
  IC50: 2000 to 5000 nM
[1]; apparent IC50, FIG. 2
  IC50: 2000 nM
[1]; read-out: inhibition % at 1 mM
  inhibition at 1000 µM: 85%
[1]; upon 10-fold dilution with excess of fresh GPI-protein substrate
  reversal of half-maximal inhibition: completely reversed
[2]
  inhibition in words: potent inhibitor
